Converted amounts (≈) assume the structure as drawn. Like-named read-outs stand apart in the source and are kept apart here. Blank lines part the entries; values can stand above or below the molecule they belong to.
Experiments:
B. subtilis = tested on: B. subtilis
Experimental: (§1) Determining the MIC value is a standard technique well known to the skilled person, in particular the MIC value can be measured using method M07-A9 (CLSI standard, January 2012, Vol. 32, No. 2, “Methods for Dilution Antimicrobial Susceptibility Tests for Bacteria That Grow Aerobically”).
(§2) Different microorganisms (from glycerol stock) were plated out on blood agar and incubated at 37° C. for 24 hours. A colony was selected and 2×5 mL of TSB was inoculated. The samples and a sterile control were cultured for 16-20 hours at 37° C. Comparative compound B is nisin acting as a control. […] Comparative compounds A, D and E are also control compounds not part of the present invention.
(§3) The overnight cultures were diluted to 0.5×10^6 CFU in TSB. 50 μL of the bacterial solution was added to each well and the plates were sealed with an adhesive membrane and incubated at 37° C. for 16 hours. The next day, the plates were visually inspected for bacterial growth.

E. coli = tested on: E. coli
Experimental: as §1, §2, §3

S. aureus = tested on: S. aureus
Experimental: as §1, §2, §3

M. luteus = format: cell-based
Experimental: as §1
(§4) Different microorganisms (from glycerol stock) were plated out on blood agar and incubated at 37° C. for 24 hours. A colony was selected and 2×5 mL of TSB was inoculated. The samples and a sterile control were cultured for 16-20 hours at 37° C. Comparative compound B is nisin acting as a control. Comparative compound C is vancomycin, also acting as a control. Comparative compounds A, D and E are also control compounds not part of the present invention.
as §3

VRE 155 = format: cell-based; conditions: duplicate experiments
Experimental: as §1, §4, §3

MRSA USA300 = format: cell-based, Staphylococcus aureus; conditions: duplicate experiments
Experimental: as §1, §4, §3

MRSA WKZ2 = format: cell-based, Staphylococcus aureus; conditions: duplicate experiments
Experimental: as §1, §4, §3

Serum stability = format: in vitro ADME; conditions: human serum, 37° C., after 24 hours; read-out: stability in human serum, remained intact
Experimental: 2 mg/mL peptide solutions were prepared in 26% DMSO in MilliQ. Duplicate samples were prepared with […] peptide solution and […] human serum, making the final DMSO concentration 2%. The samples were incubated at 37° C., and samples were taken at t=0, 1, 2, 4 and 24 hours as follows: to 100 μL serum solution, 200 μL MeOH (containing 0.075 mg/mL ethylparaben as an internal standard) was added to precipitate the proteins. The sample was vortexed briefly and allowed to stand for 10 min at RT. The samples were then centrifuged at 13,000 rpm for 5 min, and the supernatant was taken and stored at −20° C. until analysis. Each sample was analyzed by HPLC on a C4 column. The peaks were integrated and normalized to the internal standard.

- MIC values B. subtilis (B. subtilis): >64 µg/mL
- MIC values E. coli (E. coli): >64 µg/mL
- MIC values S. aureus (S. aureus): >64 µg/mL
- MIC values M. luteus (M. luteus): 8 µg/mL (≈ 4.97 µM)
Compound: C=C1NC(=O)[C@H]([C@@H](C)CC)NC(=O)[C@H](NC(=O)C(=CC)NC(=O)[C@@H](N)[C@@H](C)CC)CSC[C@@H](C(=O)N[C@H]2C(=O)N3CCC[C@H]3C(=O)NCC(=O)N[C@H](C(=O)N[C@@H](CCCCN)C(=O)NCCCn3cc(CCC(=O)N(CCCCCCCCCC)CCCCCCCCCC)nn3)CS[C@H]2C)NC(=O)[C@H](CC(C)C)NC1=O [Compound (24) with R1-group (b)]

Compound: C=C1NC(=O)[C@H]([C@@H](C)CC)NC(=O)[C@H](NC(=O)C(=CC)NC(=O)[C@@H](N)[C@@H](C)CC)CSC[C@@H](C(=O)N[C@H]2C(=O)N3CCC[C@H]3C(=O)NCC(=O)N[C@H](C(=O)N[C@@H](CCCCN)C(=O)NCCCCCC)CS[C@H]2C)NC(=O)[C@H](CC(C)C)NC1=O [(2)]
- MIC values B. subtilis (B. subtilis; duplicate experiments): 32 µg/mL (≈ 25.9 µM)
- MIC values E. coli (E. coli; duplicate experiments): >64 µg/mL
- MIC values S. aureus (S. aureus; duplicate experiments): >64 µg/mL
- MIC values M. luteus (M. luteus; duplicate experiments): 2 µg/mL (≈ 1.62 µM)

Compound: C=C1NC(=O)[C@H]([C@@H](C)CC)NC(=O)[C@H](NC(=O)C(=CC)NC(=O)[C@@H](N)[C@@H](C)CC)CSC[C@@H](C(=O)N[C@H]2C(=O)N3CCC[C@H]3C(=O)NCC(=O)N[C@H](C(=O)N[C@@H](CCCCN)C(=O)NC/C=C(\C)CC/C=C(\C)CCC=C(C)C)CS[C@H]2C)NC(=O)[C@H](CC(C)C)NC1=O [(12)]
- MIC values B. subtilis (B. subtilis; duplicate experiments): 4 µg/mL (≈ 2.95 µM)
- MIC values E. coli (E. coli; duplicate experiments): >64 µg/mL
- MIC values S. aureus (S. aureus; duplicate experiments): 8 µg/mL (≈ 5.91 µM)
- MIC values M. luteus (M. luteus; duplicate experiments): 2 µg/mL (≈ 1.48 µM)
- MIC values VRE 155 (VRE 155): 8 µg/mL (≈ 5.91 µM)
- MIC values MRSA USA300 (MRSA USA300): 16 µg/mL (≈ 11.8 µM)
- MIC values MRSA WKZ2 (MRSA WKZ2): 16 µg/mL (≈ 11.8 µM)
- remaining at 24 h, 0.15 mg/mL (Serum stability): > 50%

Compound: C=C1NC(=O)[C@H]([C@@H](C)CC)NC(=O)[C@H](NC(=O)C(=CC)NC(=O)[C@@H](N)[C@@H](C)CC)CSC[C@@H](C(=O)N[C@H]2C(=O)N3CCC[C@H]3C(=O)NCC(=O)N[C@H](C(=O)N[C@@H](CCCCN)C(=O)NCCCCCCCCCC)CS[C@H]2C)NC(=O)[C@H](CC(C)C)NC1=O [(6)]
- MIC values B. subtilis (B. subtilis; duplicate experiments): 4 to 8 µg/mL
- MIC values E. coli (E. coli; duplicate experiments): 64 µg/mL (≈ 49.6 µM)
- MIC values S. aureus (S. aureus; duplicate experiments): 16 µg/mL (≈ 12.4 µM)
- MIC values M. luteus (M. luteus; duplicate experiments): 2 µg/mL (≈ 1.55 µM)
- MIC values VRE 155 (VRE 155): 8 µg/mL (≈ 6.2 µM)
- MIC values MRSA USA300 (MRSA USA300): 16 µg/mL (≈ 12.4 µM)
- MIC values MRSA WKZ2 (MRSA WKZ2): 16 µg/mL (≈ 12.4 µM)
- remaining at 24 h, 0.15 mg/mL (Serum stability): 94%

Compound: C=C1NC(=O)[C@H]([C@@H](C)CC)NC(=O)[C@H](NC(=O)C(=CC)NC(=O)[C@@H](N)[C@@H](C)CC)CSC[C@@H](C(=O)N[C@H]2C(=O)N3CCC[C@H]3C(=O)NCC(=O)N[C@H](C(=O)N[C@@H](CCCCN)C(=O)O)CS[C@H]2C)NC(=O)[C@H](CC(C)C)NC1=O [Compound A, nisin [1-12], reference compound]
- MIC values B. subtilis (B. subtilis; duplicate experiments): >128 µg/mL
- MIC values E. coli (E. coli; duplicate experiments): >128 µg/mL
- MIC values S. aureus (S. aureus; duplicate experiments): >128 µg/mL
- MIC values M. luteus (M. luteus; duplicate experiments): 8 to 16 µg/mL
- MIC values VRE 155 (VRE 155): >128 µg/mL
- MIC values MRSA USA300 (MRSA USA300): >128 µg/mL
- MIC values MRSA WKZ2 (MRSA WKZ2): >128 µg/mL
